Results taken from ChEMBL document CHEMBL4680282, “Repurposing of Drugs-The Ketamine Story” (J Med Chem, 2020).
In brackets after ≈: the same amount, converted by molar mass.

Assays:
Glutamate NMDA receptor [1] = test: Displacement of [3H]-MK801 from NMDA receptor in rat brain membranes; assay type: cell membranes, Membrane
[2] = Cmax in mouse brain at 10 mg/kg, ip measured after 10 mins; assay type: ADME, organism-based; parameters: route intraperitoneal, time 10 min, dose 10 mg/kg; settings: in vivo
Glutamate NMDA receptor [3] = test: Displacement of [3H]-MK801 from NMDA receptor in rat brain homogenate; assay type: tissue-based
[4] = Solubility of the compound in water; assay type: physicochemical
Homo sapiens [5] = test: Anesthetic activity in SC dosed human assessed as time duration for onset of action; assay type: functional
[6] = target: Glutamate NMDA receptor; Grin1/Grin2a (Rattus norvegicus, UniProt P35439+Q00959); test: Displacement of [3H]-MK801 from rat brain GluN1/GluN2A expressed in HEK293 cells; assay type: cell-based
Sequence of Glutamate NMDA receptor; Grin1/Grin2a (Q00959 whole entry, other chains not shown): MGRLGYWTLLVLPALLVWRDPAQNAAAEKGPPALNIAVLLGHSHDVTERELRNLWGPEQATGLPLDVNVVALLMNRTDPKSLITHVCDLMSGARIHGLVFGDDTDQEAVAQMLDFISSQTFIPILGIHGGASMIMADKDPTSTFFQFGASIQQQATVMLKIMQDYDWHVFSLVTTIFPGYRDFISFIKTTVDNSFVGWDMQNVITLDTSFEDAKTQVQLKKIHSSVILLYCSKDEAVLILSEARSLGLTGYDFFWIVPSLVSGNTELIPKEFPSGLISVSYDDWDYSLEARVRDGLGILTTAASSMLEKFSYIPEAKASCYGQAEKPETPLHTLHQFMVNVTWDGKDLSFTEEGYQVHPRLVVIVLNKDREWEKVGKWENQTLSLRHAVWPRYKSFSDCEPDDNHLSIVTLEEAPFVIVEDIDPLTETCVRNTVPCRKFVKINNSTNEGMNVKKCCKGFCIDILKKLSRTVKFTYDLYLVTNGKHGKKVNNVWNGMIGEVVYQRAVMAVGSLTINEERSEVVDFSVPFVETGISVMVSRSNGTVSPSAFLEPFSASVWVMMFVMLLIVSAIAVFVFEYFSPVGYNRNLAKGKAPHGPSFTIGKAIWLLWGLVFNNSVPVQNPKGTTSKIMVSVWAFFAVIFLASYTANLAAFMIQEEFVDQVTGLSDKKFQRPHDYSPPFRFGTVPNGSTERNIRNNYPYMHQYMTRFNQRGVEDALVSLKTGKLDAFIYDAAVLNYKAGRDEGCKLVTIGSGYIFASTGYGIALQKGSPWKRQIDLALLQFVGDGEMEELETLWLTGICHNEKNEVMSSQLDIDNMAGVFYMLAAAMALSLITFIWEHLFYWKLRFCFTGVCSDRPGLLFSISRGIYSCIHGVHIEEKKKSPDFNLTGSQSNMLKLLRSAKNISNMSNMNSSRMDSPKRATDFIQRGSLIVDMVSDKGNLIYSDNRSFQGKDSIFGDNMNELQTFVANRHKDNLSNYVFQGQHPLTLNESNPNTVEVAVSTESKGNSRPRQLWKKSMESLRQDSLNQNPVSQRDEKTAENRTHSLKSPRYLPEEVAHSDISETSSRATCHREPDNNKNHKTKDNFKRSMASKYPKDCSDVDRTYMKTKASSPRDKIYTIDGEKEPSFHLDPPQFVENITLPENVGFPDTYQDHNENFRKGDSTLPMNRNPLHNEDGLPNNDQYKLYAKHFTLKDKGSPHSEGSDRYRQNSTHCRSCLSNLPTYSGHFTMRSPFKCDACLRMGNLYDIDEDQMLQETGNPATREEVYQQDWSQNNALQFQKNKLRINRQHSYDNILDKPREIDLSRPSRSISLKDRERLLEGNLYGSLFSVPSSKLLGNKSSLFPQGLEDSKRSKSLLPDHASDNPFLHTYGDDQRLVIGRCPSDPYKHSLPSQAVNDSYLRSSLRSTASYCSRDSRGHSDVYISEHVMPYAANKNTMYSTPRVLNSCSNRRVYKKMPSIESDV

Glutamate NMDA receptor [7] = test: Displacement of [3H]-MK801 from NMDA receptor in Sprague-Dawley rat cerebellum by liquid scintillation counting method; assay type: tissue-based
Homo sapiens [8] = test: Anesthetic activity in po dosed human assessed as time duration of action; assay type: functional
[9] = Aqueous solubility of the compound; assay type: physicochemical
Glutamate NMDA receptor [10] = test: Displacement of [3H]-MK801 from NMDA receptor in rat whole brain homogenate incubated for 2 hrs in presence of Mg2+ by liquid scintillation counting method; assay type: tissue-based
[11] = Bioavailability in human at 0.5 mg/kg, IM; assay type: ADME, organism-based; settings: in vivo
[12] = Cmax in human at 2 mg/kg, iv measured after 1 mins; assay type: ADME, organism-based; parameters: route intravenous, time 1 min, dose 2 mg/kg; settings: in vivo
Glutamate NMDA receptor [13] = test: Displacement of [3H]-MK801 from NMDA receptor in Sprague-Dawley rat cortex incubated for 2 hrs in presence of Mg2+ by scintillation counting method; assay type: tissue-based
Glutamate NMDA receptor [14] = test: Displacement of [3H]-MK801 from NMDA receptor in rat forebrain homogenate incubated for 2 hrs in presence of Mg2+ by liquid scintillation counting method; assay type: tissue-based
Homo sapiens [15] = test: Anesthetic activity in po dosed human assessed as time duration for onset of action; assay type: functional
[16] = Drug elimination in human urine assessed as metabolically unchanged compound; assay type: ADME; settings: read-out: Drug excretion
Glutamate NMDA receptor [17] = test: Displacement of [3H]-MK801 from NMDA receptor in Sprague-Dawley rat cerebral cortex by liquid scintillation counting method; assay type: tissue-based
Glutamate NMDA receptor [18] = test: Displacement of [3H]-MK801 from NMDA receptor in rat brain membranes incubated for 60 mins in presence of Mg2+ by liquid scintillation counting method; assay type: cell membranes, Membrane
[19] = target: Glutamate NMDA receptor; Grin1/Grin2b (Rattus norvegicus, UniProt P35439+Q00960); test: Displacement of [3H]-MK801 from rat brain GluN1/GluN2B expressed in HEK293 cells; assay type: cell-based
Sequence of Glutamate NMDA receptor; Grin1/Grin2b (Q00960 whole entry, other chains not shown): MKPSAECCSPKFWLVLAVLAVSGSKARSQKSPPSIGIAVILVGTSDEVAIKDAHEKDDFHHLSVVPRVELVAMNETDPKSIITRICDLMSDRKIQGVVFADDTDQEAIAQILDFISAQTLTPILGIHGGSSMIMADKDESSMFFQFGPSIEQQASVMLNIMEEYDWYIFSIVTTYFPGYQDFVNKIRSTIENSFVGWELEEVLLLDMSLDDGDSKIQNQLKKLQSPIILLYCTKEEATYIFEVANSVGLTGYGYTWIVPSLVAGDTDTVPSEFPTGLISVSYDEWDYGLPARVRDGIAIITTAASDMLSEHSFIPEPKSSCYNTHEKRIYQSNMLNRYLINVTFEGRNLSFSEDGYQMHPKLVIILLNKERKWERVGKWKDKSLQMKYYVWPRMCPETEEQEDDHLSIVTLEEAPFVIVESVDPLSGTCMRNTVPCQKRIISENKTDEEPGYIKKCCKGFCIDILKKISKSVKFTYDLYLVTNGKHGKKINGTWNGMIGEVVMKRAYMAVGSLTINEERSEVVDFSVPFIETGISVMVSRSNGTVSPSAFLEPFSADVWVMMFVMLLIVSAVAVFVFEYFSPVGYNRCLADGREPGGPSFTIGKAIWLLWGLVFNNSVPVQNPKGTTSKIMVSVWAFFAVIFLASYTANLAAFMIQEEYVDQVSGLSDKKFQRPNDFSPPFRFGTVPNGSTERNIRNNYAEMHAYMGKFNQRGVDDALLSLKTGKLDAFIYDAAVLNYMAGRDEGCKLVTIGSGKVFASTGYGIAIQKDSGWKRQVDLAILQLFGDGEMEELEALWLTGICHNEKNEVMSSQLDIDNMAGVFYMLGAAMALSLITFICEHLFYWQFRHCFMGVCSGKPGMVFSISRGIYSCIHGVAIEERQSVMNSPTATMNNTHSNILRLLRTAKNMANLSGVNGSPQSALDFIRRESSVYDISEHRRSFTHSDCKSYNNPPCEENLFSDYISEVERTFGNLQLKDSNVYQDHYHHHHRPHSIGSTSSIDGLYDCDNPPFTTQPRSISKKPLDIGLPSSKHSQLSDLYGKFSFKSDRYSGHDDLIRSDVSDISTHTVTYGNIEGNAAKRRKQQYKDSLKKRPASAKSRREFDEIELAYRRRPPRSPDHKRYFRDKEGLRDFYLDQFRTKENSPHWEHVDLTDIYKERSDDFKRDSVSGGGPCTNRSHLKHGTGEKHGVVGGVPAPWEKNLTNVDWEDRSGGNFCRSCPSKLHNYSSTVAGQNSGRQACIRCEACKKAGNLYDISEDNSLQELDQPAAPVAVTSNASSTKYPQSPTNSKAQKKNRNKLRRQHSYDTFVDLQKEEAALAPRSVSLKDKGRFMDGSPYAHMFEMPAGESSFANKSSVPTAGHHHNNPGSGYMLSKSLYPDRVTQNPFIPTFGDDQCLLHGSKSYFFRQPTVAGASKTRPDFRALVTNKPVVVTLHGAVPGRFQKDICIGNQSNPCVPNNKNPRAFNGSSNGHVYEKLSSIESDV

[20] = Bioavailability in IN dosed human; assay type: ADME, organism-based; settings: in vivo, inhaled or intranasal
Homo sapiens [21] = test: Anesthetic activity in IM dosed human assessed as time duration for onset of action; assay type: functional
[22] = Displacement of [3H]-MK801 from NMDA receptor in ICR Harlan mouse brain homogenate incubated for 45 mins by liquid scintillation spectrometry; assay type: tissue-based
[23] = Oral bioavailability in human; assay type: ADME, organism-based; settings: in vivo
Homo sapiens [24] = test: Anesthetic activity in IN dosed human assessed as time duration for onset of action; assay type: functional
Glutamate NMDA receptor [25] = test: Displacement of [3H]-MK801 from NMDA receptor in Sprague-Dawley rat brain synaptic membrane incubated for 60 mins by liquid scintillation counting method; assay type: cell membranes
Glutamate NMDA receptor [26] = test: Displacement of [3H]-TCP from NMDA receptor in rat brain membranes incubated for 45 mins in presence of Mg2+ by scintillation counting method; assay type: cell membranes, Membrane
[27] = Displacement of [3H]-MK801 from NMDA receptor in dog cerebral cortex incubated for 45 mins by liquid scintillation spectrometry; assay type: tissue-based, Canis lupus familiaris
[28] = Elimination half life in Wistar rat at 20 mg/kg, iv by LC-MS analysis; assay type: ADME, organism-based; settings: in vivo, read-out: beta t1/2 (converted)
[29] = Elimination half life in human; assay type: ADME; settings: read-out: beta t1/2 (converted)
Glutamate NMDA receptor [30] = test: Displacement of [3H]-MK801 from NMDA receptor in rat spinal cord incubated for 45 mins by liquid scintillation spectrometry; assay type: tissue-based
[31] = target: Glutamate [NMDA] receptor; test: Displacement of [3H]-MK801 from NMDA receptor in human frontal cortex in presence of Mg2+ by scintillation counting method; assay type: tissue-based
[32] = Displacement of [3H]-MK801 from NMDA receptor in Dunkin-Hartley guinea pig brain homogenate incubated for 45 mins by liquid scintillation spectrometry; assay type: tissue-based, Cavia porcellus
Glutamate NMDA receptor [33] = test: Displacement of [3H]-MK801 from NMDA receptor in rat brain membranes incubated for 45 mins in presence of Mg2+ by scintillation counting method; assay type: cell membranes, Membrane
[34] = Protein binding in human plasma; assay type: ADME, cell-free; settings: read-out: PPB (converted)
[35] = Bioavailability in SL dosed human; assay type: ADME, organism-based; settings: in vivo
Homo sapiens [36] = test: Anesthetic activity in IM dosed human assessed as time duration of action; assay type: functional
Glutamate NMDA receptor [37] = test: Displacement of [3H]-MK801 from NMDA receptor in rat striatum incubated for 2 hrs in presence of Mg2+ by scintillation counting method; assay type: tissue-based
[38] = target: Glutamate NMDA receptor; GRIN1/GRIN2A (Homo sapiens, UniProt Q05586+Q12879); test: Displacement of [3H]-MK801 from human forebrain […] expressed in HEK293 cells by […]; assay type: cell-based
Sequence of Glutamate NMDA receptor; GRIN1/GRIN2A (Q12879 whole entry, other chains not shown): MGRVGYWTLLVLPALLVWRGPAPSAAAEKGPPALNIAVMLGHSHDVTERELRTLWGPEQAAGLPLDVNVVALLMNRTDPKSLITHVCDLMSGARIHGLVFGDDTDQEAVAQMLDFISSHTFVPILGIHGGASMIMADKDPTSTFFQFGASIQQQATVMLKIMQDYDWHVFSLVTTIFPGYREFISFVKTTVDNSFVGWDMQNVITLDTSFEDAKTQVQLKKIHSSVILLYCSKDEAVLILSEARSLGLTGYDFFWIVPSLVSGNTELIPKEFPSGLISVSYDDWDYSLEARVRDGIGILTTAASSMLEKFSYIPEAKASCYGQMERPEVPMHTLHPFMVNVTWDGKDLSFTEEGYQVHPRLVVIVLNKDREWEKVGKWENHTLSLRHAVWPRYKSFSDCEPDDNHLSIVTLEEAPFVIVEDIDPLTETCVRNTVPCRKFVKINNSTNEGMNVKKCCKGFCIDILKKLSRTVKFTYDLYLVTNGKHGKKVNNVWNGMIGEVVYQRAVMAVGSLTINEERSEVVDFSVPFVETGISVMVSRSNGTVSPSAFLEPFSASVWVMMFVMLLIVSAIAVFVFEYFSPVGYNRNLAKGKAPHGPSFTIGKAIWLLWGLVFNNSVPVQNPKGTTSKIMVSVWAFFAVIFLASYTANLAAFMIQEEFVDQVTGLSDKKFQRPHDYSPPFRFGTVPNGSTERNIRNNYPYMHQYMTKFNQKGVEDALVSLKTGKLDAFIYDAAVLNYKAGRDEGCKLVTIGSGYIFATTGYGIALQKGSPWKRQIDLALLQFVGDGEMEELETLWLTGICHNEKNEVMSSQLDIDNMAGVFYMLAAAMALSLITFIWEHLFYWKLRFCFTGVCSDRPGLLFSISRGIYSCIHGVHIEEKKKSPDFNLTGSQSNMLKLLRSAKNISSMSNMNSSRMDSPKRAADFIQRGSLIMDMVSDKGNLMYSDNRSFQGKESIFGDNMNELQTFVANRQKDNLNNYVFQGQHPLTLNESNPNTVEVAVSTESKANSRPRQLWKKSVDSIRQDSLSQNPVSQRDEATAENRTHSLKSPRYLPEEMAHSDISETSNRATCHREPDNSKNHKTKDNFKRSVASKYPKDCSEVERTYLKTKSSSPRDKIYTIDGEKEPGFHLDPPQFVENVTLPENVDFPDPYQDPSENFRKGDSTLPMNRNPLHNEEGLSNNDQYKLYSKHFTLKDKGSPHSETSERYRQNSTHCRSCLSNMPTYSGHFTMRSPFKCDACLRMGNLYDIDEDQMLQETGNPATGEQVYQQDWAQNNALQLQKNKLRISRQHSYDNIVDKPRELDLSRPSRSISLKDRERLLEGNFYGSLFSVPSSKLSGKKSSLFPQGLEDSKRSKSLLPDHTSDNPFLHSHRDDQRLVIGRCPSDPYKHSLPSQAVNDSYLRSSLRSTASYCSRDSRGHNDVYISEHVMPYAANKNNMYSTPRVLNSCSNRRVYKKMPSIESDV

[39] = Bioavailability in REC dosed human; assay type: ADME, organism-based; settings: in vivo
[40] = Displacement of [3H]-MK801 from NMDA receptor in dog brain homogenate incubated for 45 mins by liquid scintillation spectrometry; assay type: tissue-based, Canis lupus familiaris
[41] = target: Glutamate [NMDA] receptor; test: Displacement of [3H]-MK801 from NMDA receptor in human cortex incubated for 2 hrs in presence of Mg2+ by scintillation counting method; assay type: tissue-based
Glutamate NMDA receptor [42] = test: Inhibition of NMDAR-mediated excitatory postsynaptic potential in Sprague-Dawley rat hippocampus CA1 region by electrophysiology; parameters: species or system Brain
[43] = Bioavailability in iv dosed human; assay type: ADME, organism-based; settings: in vivo
Glutamate NMDA receptor [44] = test: Displacement of [3H]-MK801 from NMDA receptor in rat brain membranes incubated for 2 hrs in presence of Mg2+ by radioligand binding assay; assay type: cell membranes, Membrane
Glutamate NMDA receptor [45] = test: Displacement of [3H]-MK801 from NMDA receptor in rat brain membranes incubated for 2 hrs in presence of Mg2+/glumate/glycine by radioligand binding assay; assay type: cell membranes, Membrane

Structure (SMILES): CN[C@]1(c2ccccc2Cl)CCCCC1=O [ESKETAMINE]
- Ki (Glutamate NMDA receptor [1]): 690 nM
- Cmax [2]: 7.33 µmol/kg
- Ki (Glutamate NMDA receptor [3]): 300 nM

Structure (SMILES): CNC1(c2ccccc2Cl)CCCCC1=O.Cl (stereo not given) [KETAMINE HYDROCHLORIDE]
- solubility [4]: 200 mg/mL

Structure (SMILES): CN[C@@]1(c2ccccc2Cl)CCCCC1=O
- Ki (Glutamate NMDA receptor [1]): 2570 nM
- Cmax [2]: 7.93 µmol/kg
- Ki (Glutamate NMDA receptor [3]): 1400 nM

Structure (SMILES): CNC1(c2ccccc2Cl)CCCCC1=O (stereo not given) [KETAMINE]
- Time (Homo sapiens [5]): 15 min
- Ki [6]: 180 nM
- Ki (Glutamate NMDA receptor [7]): 180 nM
- Time (Homo sapiens [8]): 4 h
- solubility [9]: 0.046 mg/mL (≈ 193 µM)
- Ki (Glutamate NMDA receptor [10]): 180 nM
- bioavailability [11]: 93%
- Cmax [12]: 7.6 µM
- Ki (Glutamate NMDA receptor [13]): 180 nM
- Ki (Glutamate NMDA receptor [14]): 180 nM
- Time (Homo sapiens [15]): 15 min
- dose excreted [16]: 2%
- Ki (Glutamate NMDA receptor [17]): 180 nM
- Ki (Glutamate NMDA receptor [18]): 180 nM
- Ki [19]: 180 nM
- bioavailability [20]: 8%
- Time (Homo sapiens [21]): 1 min
- Ki [22]: 180 nM
- bioavailability [23]: 17%
- Time (Homo sapiens [24]): 5 min
- Ki (Glutamate NMDA receptor [25]): 180 nM
- Ki (Glutamate NMDA receptor [26]): 180 nM
- Ki [27]: 180 nM
- half-life [28]: 8 h
- half-life [29]: 2 h
- Ki (Glutamate NMDA receptor [30]): 180 nM
- Ki [31]: 180 nM
- Ki [32]: 180 nM
- Ki (Glutamate NMDA receptor [33]): 180 nM
- fraction unbound [34]: 0.88
- bioavailability [35]: 24%
- Time (Homo sapiens [36]): 0.5 h
- Ki (Glutamate NMDA receptor [37]): 180 nM
- Ki [38]: 180 nM
- bioavailability [39]: 11%
- Ki [40]: 180 nM
- Ki [41]: 180 nM
- IC50 (Glutamate NMDA receptor [42]): 10000 nM
- F [43]: 100%
- Ki (Glutamate NMDA receptor [44]): 180 nM
- Ki (Glutamate NMDA receptor [45]): 180 nM

Structure (SMILES): N[C@]1(c2ccccc2Cl)CCCCC1=O
- Ki (Glutamate NMDA receptor [1]): 2250 nM
- Ki (Glutamate NMDA receptor [3]): 1700 nM
